Test system: Plasmodium falciparum lines, progeny, field isolates and transfected parasites
Settings: 0.8 µM verapamil with DHMS

In the case of `COc1ccc(CCN(C)CCCC(C#N)(c2ccc(OC)c(OC)c2)C(C)C)cc1OC` (stereo not shown) [verapamil], the “effect on parasite response to 1” value is reported as “did not have any effect”.

— publication PMC2784992 (Nature chemical biology, 2009)
